# Test results reported in patent publication US10597388B2, “Pyridazinone herbicides” (FMC CORPORATION, priority 2014, dated 2020).
# Assays:
# Format in all cases: in vivo
# [1] = test system: oilseed rape (Brassica napus); assay: Test C greenhouse herbicide test, pre- and postemergence
# Method in brief: (§1)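 Two application timings: at sowing into a soil/sand blend, and on 2–18 cm seedlings in peat-vermiculite potting mix. A non-phytotoxic, surfactant-containing solvent carried the compounds. Plants were compared with controls and rated visually on 0–100 after 13–15 d.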
# [2] = test system: crabgrass, large (large crabgrass, Digitaria sanguinalis); assay: as above
# Method in brief: as §1
# [3] = test system: oat, wild (wild oat, Avena fatua); assay: Test C greenhouse herbicide test, postemergence
# Method in brief: (§2)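 Test chemicals were applied postemergence to greenhouse plants at the 1- to 4-leaf stage (2–18 cm tall) growing in peat/vermiculite medium. After 13–15 d, injury was rated visually against untreated controls on a 0–100 scale (0 = no effect, 100 = complete control).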
# kochia (Kochia scoparia) [4] = assay: Test C greenhouse herbicide test, postemergence
# Method in brief: as §2
# [5] = test system: blackgrass (Alopecurus myosuroides); assay: Test A greenhouse herbicide test, postemergence; conditions: for Plant response rating, Blackgrass: 125 g ai/ha, visual rating after approx. 10 d, 0 to 100 scale (0 no effect, 100 complete control); for Blackgrass plant response rating: 500 g ai/ha, 0 to 100 scale, 0 is no effect, 100 is complete control
# Method in brief: (§3)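 Plants grown in loam soil/sand blend pots were treated postemergence at 2 to 10 cm height, one- to two-leaf stage, with formulated test chemicals. After approximately 10 d in a greenhouse, injury was rated visually against untreated controls on a 0 to 100 scale (0 no effect, 100 complete control).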
# [6] = test system: galium (catchweed bedstraw, Galium aparine); assay: Test A greenhouse herbicide test, postemergence; conditions: for Plant response rating, Galium: 125 g ai/ha, visual rating after approx. 10 d, 0 to 100 scale (0 no effect, 100 complete control); for Galium plant response rating: 500 g ai/ha, 0 to 100 scale, 0 is no effect, 100 is complete control
# Method in brief: as §3
# [7] = test system: pigweed (Amaranthus retroflexus); assay: Test A greenhouse herbicide test, pre- and postemergence
# Method in brief: (§4)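 Seeds sown in loam–sand blend got a preemergence directed soil spray of compound in non-phytotoxic solvent with surfactant. Postemergence treatment was given at 2–10 cm, one- to two-leaf stage. After ~10 d in greenhouse, injury was rated visually vs untreated controls, 0 (no effect) to 100 (complete control).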
# [8] = test system: ragweed (common ragweed, Ambrosia elatior); assay: as above
# Method in brief: as §4
# [9] = test system: wheat (Triticum aestivum); assay: as above; conditions: Postemergence; for Plant response rating, Wheat: 125 g ai/ha, 0 to 100 scale where 0 is no effect and 100 is complete control; for Wheat plant response rating: 500 g ai/ha, 0 to 100 scale, 0 is no effect, 100 is complete control
# Method in brief: as §4
# kochia (Kochia scoparia) [10] = assay: as above
# Method in brief: as §4
# [11] = test system: barnyardgrass (Echinochloa crus-galli); assay: as above
# Method in brief: as §4
# corn (Zea mays) = assay: as above; conditions: Postemergence; for Plant response rating, Corn: 125 g ai/ha, visual rating after approx. 10 d, 0 to 100 scale (0 no effect, 100 complete control); for Corn plant response rating: 500 g ai/ha, 0 to 100 scale, 0 is no effect, 100 is complete control
# Method in brief: as §4
# [12] = Postemergence, 31 g ai/ha, 0 to 100 scale (0 no effect, 100 complete control)
# [13] = Postemergence, 125 g ai/ha, scale 0 to 100, 0 is no effect, 100 is complete control
# [14] = Postemergence, 250 g ai/ha, scale 0 to 100, 0 no effect, 100 complete control, 13 to 15 d
# [15] = Preemergence, 31 g ai/ha, scale 0 to 100, 0 is no effect, 100 is complete control
# [16] = Preemergence, 62 g ai/ha, scale 0 to 100, 0 is no effect, 100 is complete control
# [17] = Preemergence, 125 g ai/ha, scale 0 to 100, 0 is no effect, 100 is complete control
# [18] = Preemergence, 250 g ai/ha, scale 0 to 100 (0 no effect, 100 complete control)
# [19] = postemergence, 62 g ai/ha, scale 0 to 100, 0 no effect, 100 complete control
# [20] = Postemergence, 125 g ai/ha, visual rating after approx. 10 d, 0 to 100 scale (0 no effect, 100 complete control)
# [21] = Postemergence, 500 g ai/ha, 0 to 100 scale, 0 is no effect, 100 is complete control
# [22] = Preemergence, 125 g ai/ha, 0 to 100 scale where 0 is no effect and 100 is complete control
# [23] = Preemergence, 500 g ai/ha, 0 to 100 scale, 0 no effect, 100 complete control
smiles,measurement,setting,value
CC(=O)Oc1c(C)nn(C)c(=O)c1-c1c(C)sc2ccc(C)cc12 [Compound 25],Oilseed Rape plant response rating,[1]; [12],0
same,"Plant response rating, Oilseed Rape",[1]; [13],20
same,"Plant response rating, Oilseed Rape",[1]; [14],5
same,"Plant response rating, Oilseed Rape",[1]; [15],0
same,"Plant response rating, Oilseed Rape",[1]; [16],0
same,"Plant response rating, Oilseed Rape",[1]; [17],5
same,Oilseed Rape plant response rating,[1]; [18],35
same,Oilseed Rape plant response rating,[1]; [19],0
same,"Crabgrass, Large plant response rating",[2]; [12],5
same,"Plant response rating, Crabgrass, Large",[2]; [13],20
same,"Plant response rating, Crabgrass, Large",[2]; [14],20
same,"Plant response rating, Crabgrass, Large",[2]; [15],70
same,"Plant response rating, Crabgrass, Large",[2]; [16],75
same,"Plant response rating, Crabgrass, Large",[2]; [17],95
same,"Crabgrass, Large plant response rating",[2]; [18],90
same,"Crabgrass, Large plant response rating",[2]; [19],15
same,"Oat, Wild plant response rating",[3]; [12],60
same,"Plant response rating, Oat, Wild",[3]; [13],90
same,"Plant response rating, Oat, Wild",[3]; [14],95
same,"Oat, Wild plant response rating",[3]; [19],70
same,Kochia plant response rating,kochia (Kochia scoparia) [4]; [12],95
same,"Plant response rating, Kochia",kochia (Kochia scoparia) [4]; [13],100
same,"Plant response rating, Kochia",kochia (Kochia scoparia) [4]; [14],100
same,Kochia plant response rating,kochia (Kochia scoparia) [4]; [19],95
same,"Plant response rating, Blackgrass",[5],60
same,Blackgrass plant response rating,[5],90
same,"Plant response rating, Galium",[6],100
same,Galium plant response rating,[6],100
same,"Plant response rating, Pigweed",[7]; [20],90
same,Pigweed plant response rating,[7]; [21],100
same,Pigweed plant response rating,[7]; [22],100
same,"Plant response rating, Pigweed",[7]; [23],100
same,"Plant response rating, Ragweed",[8]; [20],100
same,Ragweed plant response rating,[8]; [21],100
same,Ragweed plant response rating,[8]; [22],90
same,"Plant response rating, Ragweed",[8]; [23],100
same,"Plant response rating, Wheat",[9],0
same,Wheat plant response rating,[9],0
same,"Plant response rating, Kochia",kochia (Kochia scoparia) [10]; [20],100
same,Kochia plant response rating,kochia (Kochia scoparia) [10]; [21],100
same,Kochia plant response rating,kochia (Kochia scoparia) [10]; [22],90
same,"Plant response rating, Kochia",kochia (Kochia scoparia) [10]; [23],100
same,"Plant response rating, Barnyardgrass",[11]; [20],20
same,Barnyardgrass plant response rating,[11]; [21],90
same,Barnyardgrass plant response rating,[11]; [22],30
same,"Plant response rating, Barnyardgrass",[11]; [23],90
same,"Plant response rating, Corn",corn (Zea mays),0
same,Corn plant response rating,corn (Zea mays),20
CC(=O)Oc1c(C)nn(C)c(=O)c1-c1c(C)sc2c(C)cc(C)cc12 [Compound 27],Oilseed Rape plant response rating,[1]; [12],5
same,"Plant response rating, Oilseed Rape",[1]; [13],80
same,"Plant response rating, Oilseed Rape",[1]; [14],70
same,"Plant response rating, Oilseed Rape",[1]; [15],5
same,"Plant response rating, Oilseed Rape",[1]; [16],95
same,"Plant response rating, Oilseed Rape",[1]; [17],98
same,Oilseed Rape plant response rating,[1]; [18],98
same,Oilseed Rape plant response rating,[1]; [19],70
same,"Crabgrass, Large plant response rating",[2]; [12],5
same,"Plant response rating, Crabgrass, Large",[2]; [13],30
same,"Plant response rating, Crabgrass, Large",[2]; [14],45
same,"Plant response rating, Crabgrass, Large",[2]; [15],55
same,"Plant response rating, Crabgrass, Large",[2]; [16],80
same,"Plant response rating, Crabgrass, Large",[2]; [17],95
same,"Crabgrass, Large plant response rating",[2]; [18],98
same,"Crabgrass, Large plant response rating",[2]; [19],25
same,"Oat, Wild plant response rating",[3]; [12],85
same,"Plant response rating, Oat, Wild",[3]; [13],95
same,"Plant response rating, Oat, Wild",[3]; [14],100
same,"Oat, Wild plant response rating",[3]; [19],95
same,Kochia plant response rating,kochia (Kochia scoparia) [4]; [12],75
same,"Plant response rating, Kochia",kochia (Kochia scoparia) [4]; [13],90
same,"Plant response rating, Kochia",kochia (Kochia scoparia) [4]; [14],90
same,Kochia plant response rating,kochia (Kochia scoparia) [4]; [19],80
same,"Plant response rating, Blackgrass",[5],90
same,Blackgrass plant response rating,[5],90
same,"Plant response rating, Galium",[6],100
same,Galium plant response rating,[6],100
same,"Plant response rating, Pigweed",[7]; [20],90
same,Pigweed plant response rating,[7]; [21],100
same,Pigweed plant response rating,[7]; [22],100
same,"Plant response rating, Pigweed",[7]; [23],100
same,"Plant response rating, Ragweed",[8]; [20],100
same,Ragweed plant response rating,[8]; [21],100
same,Ragweed plant response rating,[8]; [22],90
same,"Plant response rating, Ragweed",[8]; [23],100
same,"Plant response rating, Wheat",[9],0
same,Wheat plant response rating,[9],0
same,"Plant response rating, Kochia",kochia (Kochia scoparia) [10]; [20],70
same,Kochia plant response rating,kochia (Kochia scoparia) [10]; [21],90
same,Kochia plant response rating,kochia (Kochia scoparia) [10]; [22],40
same,"Plant response rating, Kochia",kochia (Kochia scoparia) [10]; [23],90
same,"Plant response rating, Barnyardgrass",[11]; [20],90
same,Barnyardgrass plant response rating,[11]; [21],90
same,Barnyardgrass plant response rating,[11]; [22],90
same,"Plant response rating, Barnyardgrass",[11]; [23],100
same,"Plant response rating, Corn",corn (Zea mays),0
same,Corn plant response rating,corn (Zea mays),20
